Source: PMC7316778 (Nature Communications, 2020)

Experiments:
[1] = target: T1, FES^S700C (Homo sapiens, UniProt P07332, S700C); assay: PamChip microarray peptide phosphorylation; type: biochemical; design: human FES cDNA encoding residues 448–822 or human FER cDNA encoding residues 448–820 was amplified by PCR; made in house; host or cells: E. coli BL21(DE3), co-expressing YopH phosphatase; conditions: peptide substrate phosphorylated by FES - S700C
[2] = target: T1, FES^S700C; assay: In vitro TR-FRET kinase assay; type: biochemical; design: human FES cDNA encoding residues 448–822 or human FER cDNA encoding residues 448–820 was amplified by PCR; made in house; host or cells: E. coli BL21(DE3), co-expressing YopH phosphatase; conditions: for Apparent fold selectivity: IC50 on FES^WT divided by IC50 on FES^S700C; for IC50: read-out: pIC50 FES^S700C (converted); for Residual activity (%): FES S700C, mean, n=3

T1 sequence (P07332 448-822 S700C): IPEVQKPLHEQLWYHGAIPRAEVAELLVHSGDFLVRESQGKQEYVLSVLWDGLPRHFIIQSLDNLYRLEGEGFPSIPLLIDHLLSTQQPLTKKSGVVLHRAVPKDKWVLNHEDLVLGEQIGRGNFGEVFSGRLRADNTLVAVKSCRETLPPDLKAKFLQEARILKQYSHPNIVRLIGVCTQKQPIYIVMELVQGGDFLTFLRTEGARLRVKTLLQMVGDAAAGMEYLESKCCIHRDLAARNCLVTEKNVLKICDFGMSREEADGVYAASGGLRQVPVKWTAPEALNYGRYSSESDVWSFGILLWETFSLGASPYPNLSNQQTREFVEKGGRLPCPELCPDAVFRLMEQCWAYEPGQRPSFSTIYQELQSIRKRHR

VGFR1_1049_1061 (KNPDYVRKGDTRL; UniProt P17948 1049-1061, looked up, fragment)
Relative phosphorylation (% of highest signal) [1]: -0.7 % of highest signal

VGFR1_1235_1247 (ATSMFDDYQGDSS; UniProt P17948 1235-1247, looked up, fragment)
Relative phosphorylation (% of highest signal) [1]: -0.074 % of highest signal

COc1ccccc1Nc1ncc(Cl)c(Nc2ccccc2S(=O)(=O)C(C)C)n1 [Compound 2]
Apparent fold selectivity [2]: 2.5 fold | IC50 ([2]; TR-FRET assay, 5 µM ATP, n = 3): 15.8 nM

STAT4_686_698 (TERGDKGYVPSVF; UniProt Q14765 686-698, looked up, fragment)
Relative phosphorylation (% of highest signal) [1]: -0.317 % of highest signal

MBP_259_271 (FGYGGRASDYKSA; UniProt P02686 259-271, looked up, fragment)
Relative phosphorylation (% of highest signal) [1]: -0.258 % of highest signal

VGFR1_1046_1058_Y1048F (DIFKNPDYVRKGD; UniProt P17948 1046-1058, looked up, variant Y1048F)
Relative phosphorylation (% of highest signal) [1]: -0.9 % of highest signal

VGFR1_1162_1174 (VQQDGKDYIPINA; UniProt P17948 1162-1174, looked up, fragment)
Relative phosphorylation (% of highest signal) [1]: 4.4 % of highest signal

Nc1ncnc2c1ncn2[C@@H]1O[C@H](COP(=O)(O)OP(=O)(O)OP(=O)(O)O)[C@@H](O)[C@H]1O [ATP]
Km ([2]; FES^S700C, TR-FRET, 60 min, read-out: ATP KM): 0.79 µM

EPHA2_581_593 (QLKPLKTYVDPHT; UniProt P29317 581-593, looked up, fragment)
Relative phosphorylation (% of highest signal) [1]: 0.144 % of highest signal

ODBA_340_352_D340K (KDSSAYRSVDEVN; UniProt P12694 340-352, looked up, variant D340K)
Relative phosphorylation (% of highest signal) [1]: -0.7 % of highest signal

DDR1_506_518 (LLLSNPAYRLLLA; UniProt Q08345 506-518, looked up, fragment)
Relative phosphorylation (% of highest signal) [1]: -0.9 % of highest signal

EFS_246_258_Y253F (GGTDEGIFDVPLL; UniProt O43281 246-258, looked up, fragment Y253F)
Relative phosphorylation (% of highest signal) [1]: -1.4 % of highest signal

AMPE_5_17 (EREGSKRYCIQTK; UniProt Q07075 5-17, looked up, fragment)
Relative phosphorylation (% of highest signal) [1]: -0.5 % of highest signal

ZBT16_621_633 (LRTHNGASPYQCT; UniProt Q05516 621-633, looked up, fragment)
Relative phosphorylation (% of highest signal) [1]: 1.1 % of highest signal

VINC_815_827 (KSFLDSGYRILGA; UniProt P18206 815-827, looked up, fragment)
Relative phosphorylation (% of highest signal) [1]: 0.6 % of highest signal

STAT1_694_706 (DGPKGTGYIKTEL; UniProt P42224 694-706, looked up, fragment)
Relative phosphorylation (% of highest signal) [1]: -0.9 % of highest signal

VGFR3_1061_1073 (DIYKDPDYVRKGS; UniProt P35916 1061-1073, looked up, fragment)
Relative phosphorylation (% of highest signal) [1]: 0.1 % of highest signal

C=CC(=O)Nc1ccccc1Nc1nc(Nc2ccccc2OC)ncc1Cl [Supplementary Figure 1e]
Residual activity (%) ([2]; log[inhibitor] (M) = -5): 5.657% | Residual activity (%) ([2]; log[inhibitor] (M) = -5.52288): 10.8053% | Residual activity (%) ([2]; log[inhibitor] (M) = -6): 28.2387% | Residual activity (%) ([2]; log[inhibitor] (M) = -6.52288): 69.3014% | Residual activity (%) ([2]; log[inhibitor] (M) = -7): 75.3706% | Residual activity (%) ([2]; log[inhibitor] (M) = -7.52288): 96.1185% | Residual activity (%) ([2]; log[inhibitor] (M) = -8): 98.0581% | Residual activity (%) ([2]; log[inhibitor] (M) = -8.52288): 106.349% | Residual activity (%) ([2]; log[inhibitor] (M) = -9): 109.01% | Residual activity (%) ([2]; log[inhibitor] (M) = -9.52288): 116.606% | Residual activity (%) ([2]; log[inhibitor] (M) = -10): 111.768% | Residual activity (%) ([2]; log[inhibitor] (M) = -10.5229): 102.117% | Residual activity (%) ([2]; log[inhibitor] (M) = -11): 99.3612%

EPHA4_921_933 (QAIKMDRYKDNFT; UniProt P54764 921-933, looked up, fragment)
Relative phosphorylation (% of highest signal) [1]: -0.7 % of highest signal

NPT2A_501_513 (AKALGKRTAKYRW; UniProt Q06495 501-513, looked up, fragment)
Relative phosphorylation (% of highest signal) [1]: 0.557 % of highest signal

C=CC(=O)Nc1ccccc1Nc1nc(Nc2ccccc2OC)ncc1Cl [Compound 4]
Apparent fold selectivity [2]: 238 fold | IC50 ([2]; TR-FRET assay, 5 µM ATP, n = 3): 3.98 nM

CCC(=O)Nc1ccccc1Nc1nc(Nc2ccccc2OC)ncc1Cl [Supplementary Figure 1f]
Residual activity (%) ([2]; log[inhibitor] (M) = -5): 51.0323% | Residual activity (%) ([2]; log[inhibitor] (M) = -5.52288): 52.0081% | Residual activity (%) ([2]; log[inhibitor] (M) = -6): 80.9285% | Residual activity (%) ([2]; log[inhibitor] (M) = -6.52288): 101.29% | Residual activity (%) ([2]; log[inhibitor] (M) = -7): 99.7119% | Residual activity (%) ([2]; log[inhibitor] (M) = -7.52288): 103.019% | Residual activity (%) ([2]; log[inhibitor] (M) = -8): 101.749%

VGFR1_1320_1332_C1320K/C1321K (KKSPPPDYNSVVL; UniProt P17948 1320-1332, looked up, variant C1320K C1321K)
Relative phosphorylation (% of highest signal) [1]: 4.5 % of highest signal

C=CC(=O)Nc1cccc(Nc2nc(Nc3ccccc3OC)ncc2Cl)c1 [Supplementary Figure 1d]
Residual activity (%) ([2]; log[inhibitor] (M) = -5): -0.2497% | Residual activity (%) ([2]; log[inhibitor] (M) = -5.52288): -0.5097% | Residual activity (%) ([2]; log[inhibitor] (M) = -6): -0.8205% | Residual activity (%) ([2]; log[inhibitor] (M) = -6.52288): -0.4059% | Residual activity (%) ([2]; log[inhibitor] (M) = -7): -0.7051% | Residual activity (%) ([2]; log[inhibitor] (M) = -7.52288): -0.1368% | Residual activity (%) ([2]; log[inhibitor] (M) = -8): 11.6016% | Residual activity (%) ([2]; log[inhibitor] (M) = -8.52288): 70.8547% | Residual activity (%) ([2]; log[inhibitor] (M) = -9): 85.0509% | Residual activity (%) ([2]; log[inhibitor] (M) = -9.52288): 98.0879% | Residual activity (%) ([2]; log[inhibitor] (M) = -10): 85.4934% | Residual activity (%) ([2]; log[inhibitor] (M) = -10.5229): 94.4068% | Residual activity (%) ([2]; log[inhibitor] (M) = -11): 106.971%

EPOR_361_373 (SEHAQDTYLVLDK; UniProt P19235 361-373, looked up, fragment)
Relative phosphorylation (% of highest signal) [1]: 5.7 % of highest signal

ART_004_EAIYAAPFAKKKXC
Relative phosphorylation (% of highest signal) [1]: 8.3 % of highest signal

ZAP70_485_497 (ALGADDSYYTARS; UniProt P43403 485-497, looked up, fragment)
Relative phosphorylation (% of highest signal) [1]: 7.2 % of highest signal

CCC(=O)Nc1ccccc1Nc1nc(Nc2ccccc2OC)ncc1Cl [Compound 5]
pIC50 FES^S700C ([2]; TR-FRET assay, 5 µM ATP, n = 3): low inhibitory potency | IC50 ([2]; TR-FRET assay, 5 µM ATP, n = 3): 6310 nM

VGFR2_944_956 (RFRQGKDYVGAIP; UniProt P35968 944-956, looked up, fragment)
Relative phosphorylation (% of highest signal) [1]: 1.4 % of highest signal

VGFR2_1168_1180 (AQQDGKDYIVLPI; UniProt P35968 1168-1180, looked up, fragment)
Relative phosphorylation (% of highest signal) [1]: 9.5 % of highest signal

VGFR2_989_1001 (EEAPEDLYKDFLT; UniProt P35968 989-1001, looked up, fragment)
Relative phosphorylation (% of highest signal) [1]: 14.2 % of highest signal

PERI_458_470 (QRSELDKSSAHSY; UniProt P41219 458-470, looked up, fragment)
Relative phosphorylation (% of highest signal) [1]: -1.0 % of highest signal

VGFR1_1206_1218 (GSSDDVRYVNAFK; UniProt P17948 1206-1218, looked up, fragment)
Relative phosphorylation (% of highest signal) [1]: 0.24 % of highest signal

COc1ccccc1Nc1ncc(Cl)c(Nc2ccccc2S(=O)(=O)C(C)C)n1 [Supplementary Figure 1c]
Residual activity (%) ([2]; log[inhibitor] (M) = -5): 0.2233% | Residual activity (%) ([2]; log[inhibitor] (M) = -5.52288): 0.2556% | Residual activity (%) ([2]; log[inhibitor] (M) = -6): -0.06933% | Residual activity (%) ([2]; log[inhibitor] (M) = -6.52288): 4.851% | Residual activity (%) ([2]; log[inhibitor] (M) = -7): 14.3041% | Residual activity (%) ([2]; log[inhibitor] (M) = -7.52288): 33.9502% | Residual activity (%) ([2]; log[inhibitor] (M) = -8): 66.7428% | Residual activity (%) ([2]; log[inhibitor] (M) = -8.52288): 88.3714% | Residual activity (%) ([2]; log[inhibitor] (M) = -9): 94.1217% | Residual activity (%) ([2]; log[inhibitor] (M) = -9.52288): 96.7458% | Residual activity (%) ([2]; log[inhibitor] (M) = -10): 89.1056% | Residual activity (%) ([2]; log[inhibitor] (M) = -10.5229): 99.8276% | Residual activity (%) ([2]; log[inhibitor] (M) = -11): 106.567%

VGFR2_1207_1219_C1208S (VSDPKFHYDNTAG; UniProt P35968 1207-1219, looked up, variant C1208S)
Relative phosphorylation (% of highest signal) [1]: 1.3 % of highest signal

MBP_263_275 (GRASDYKSAHKGF; UniProt P02686 263-275, looked up, fragment)
Relative phosphorylation (% of highest signal) [1]: -0.5 % of highest signal

MK01_198_210 (IMLNSKGYTKSID; UniProt P28482 198-210, looked up, fragment)
Relative phosphorylation (% of highest signal) [1]: -1.1 % of highest signal

STAT6_634_646 (MGKDGRGYVPATI; UniProt P42226 634-646, looked up, fragment)
Relative phosphorylation (% of highest signal) [1]: -0.6 % of highest signal

STA5A_687_699 (LAKAVDGYVKPQI; UniProt P42229 687-699, looked up, fragment)
Relative phosphorylation (% of highest signal) [1]: -0.9 % of highest signal

NTRK2_509_521 (PVIENPQYFGITN; UniProt Q16620 509-521, looked up, fragment)
Relative phosphorylation (% of highest signal) [1]: -1.0 % of highest signal

VGFR2_1046_1058 (DFGLARDIYKDPD; UniProt P35968 1046-1058, looked up, fragment)
Relative phosphorylation (% of highest signal) [1]: 2.1 % of highest signal
